This passage reports IC50, IC90 and EC50 results from publication PMC6423129, “Activity and structural analysis of GRL-117C: a novel small molecule CCR5 inhibitor active against R5-tropic HIV-1s” (Scientific Reports, 2019).

One experiment has as its system R5-HIV-1BaL. Description: p24 assay using PBMCs and R5-HIV-1BaL. In kind it is cell-based. Particulars: Human immunodeficiency virus 1, BAL, PBMC, 168 h, Ba-L (PBMCs), day 7. On the procedure:
(§1) MAGI-CCR5 cells[18] were maintained in DMEM supplemented with 10% fetal calf serum (FCS: Gemini Bio-Products, West Sacramento, CA), 200 μg/ml G418, 100 μg/ml hygromycin B, and 100 μg/ml zeomycin. The Chinese hamster ovary (CHO) cells expressing CCR5[19] were maintained in Ham’s F-12 medium (GIBCO-BRL, Rockville, MD) supplemented with 10% FCS, 50 U/ml penicillin, and 50 μg/ml streptomycin in the presence of 5 μg/ml blasticidin S hydrochloride. TZM-bl cells were obtained from the NIH AIDS Reagent Program, and were cultured in DMEM with 10% FCS. Peripheral blood mononuclear cells (PBMCs) were isolated from buffy coats of HIV-1 seronegative individuals, and were activated with 10 μg/ml phytohemagglutinin (PHA) prior to use[16]. A laboratory wild-type R5-HIV-1 strain (HIV-1Ba-L)[37] was employed for drug susceptibility assays. AD101 (experimental CCR5 inhibitor) and VVC-resistant HIV clones[7],[8] were provided by Dr. John P. Moore of Cornell University for this study. The clones were propagated with activated PBMCs, and were used for the assays. A clinical HIV-1 strain, HIV-1KP-5pc, and an MVC-resistant isolate, HIV-1KP-5mvcR, were prepared and used for antiviral assays, as previously described[10],[38]. The following reagents (plasmids) for T/F HIV-1 viruses[22],[24] were obtained through the NIH AIDS Reagent Program, Division of AIDS, NIAID, NIH: pCH040.c/2625 (cat# 11740), pCH106.c/2633 (cat# 11743), pTHRO.c/2626 (cat# 11745), and pCH058.c/2960 (cat# 11856), from Dr. John Kappes and Dr. Christina Ochsenbauer.
(§2) Antiviral assays using PHA-PBMCs (p24 assay) were conducted as previously reported[16],[38]. In brief, PHA-PBMCs (1 × 10^6/ml) were exposed to 50 TCID50 of HIV-1Ba-L or drug-resistant HIV-1 infectious clones in the presence or absence of various concentrations of drugs; 10-fold serial dilutions were performed in 96-well microculture plates. The amount of p24 antigens produced by the cells was determined on day 7 in the culture via a commercially available ELISA kit (PerkinElmer). The p24 production level in drug-free control cell cultures was used as the reference. […] Antiviral assays using MAGI-CCR5 cells (MAGI assay) were conducted as previously reported[16],[39]. Single-round virus infection assays using TZM-bl cells infected with R5-HIV-1s (HIV-1YU2, HIV-1KP-5pc, and HIV-1KP-5mvcR)[10] were also conducted as previously described.

The next experiment concerns R5-HIV-1Ba-L. Description: MAGI assay using MAGI/CCR5 cells and R5-HIV-1Ba-L. It is filed as cell-based. Particulars: Human immunodeficiency virus 1, BAL, Ba-L (MAGI). As for the experimental part: as §1, §2
The target in the next experiment is T1, CCR5 (Homo sapiens, UniProt P51681).
T1 construct: expressed in transfected cells; host or cells: Chinese hamster ovary (CHO) cells expressing CCR5
Description: Inhibition of 125I-MIP-1α binding to CCR5 (CCR5+ CHO cells). As for the experimental part:
In order to determine whether GRL derivatives block the binding of CC-chemokines to CCR5, we conducted a CC-chemokine binding inhibition assay using ^125I-labeled CC-chemokines (^125I-RANTES, ^125I-MIP-1α, and ^125I-MIP-1β) and CCR5 expressing cells.
CCR5^+ CHO cells were incubated with (A) ^125I-MIP-1α, (B) ^125I-MIP-1β, and (C) ^125I-RANTES (200 ng/ml) in the presence or absence of varying concentrations of CCR5 inhibitors. Data are shown as means ± s.d. of three independent experiments.
The inhibition of the binding of ^125I-labeled CC-chemokines ([^125I] RANTES, [^125I] MIP-1α, or [^125I] MIP-1β) to CCR5 by various CCR5 inhibitors was measured as previously described. Calcium flux inhibition assays were also performed with CCR5 inhibitors, and were carried out with the Fluo-4 Direct^TM calcium reagent (Invitrogen); assays were conducted as previously described with minor modifications. In brief, CHO-CCR5 cells (5 × 10^5 cells) were exposed to Fluo-4 Direct^TM calcium reagent for 60 min at 37 °C in RPMI containing 5% FCS. Cells were then incubated with the test compound for 30 min at varying concentrations. Subsequently, cells were exposed to either MIP-1α, MIP-1β, or RANTES at 200 ng/ml. Relative increases in cytosolic Ca^2+ levels after chemokine exposure were determined with flow cytometry (FACSCalibur, BD Biosciences), and IC50 values of cytosolic Ca^2+ mobilization (Ca^2+ flux) were compared with the Ca^2+ flux level in drug-free control samples.

Another experiment has as its system pCH0.6.c/2633. Description: MAGI assay, T/F HIV-1 clone pCH0.6.c/2633. It is filed as cell-based. Particulars: Human immunodeficiency virus 1, MAGI.
Source text: We also examined the activity of GRL-compounds against Transmitter/founder (T/F) HIV-1 viruses. T/F viruses are involved in the initial infection. It is considered that T/F viruses virtually always use CCR5 rather than CXCR4 and infect T cells but not macrophages because […] of CD4 is needed to mediate virus entry for the initial transmission[20]–[24]. […] We obtained four HIV-1 T/F infectious clones. We determined the antiviral activity of GRL-117C, GRL-10007C and GRL-10018C on these HIV-1 clones using MAGI assay.
as §1, with “A clinical HIV-1 strain, HIV-1KP-5pc, and an MVC-resistant isolate, HIV-1KP-5mvcR, were prepared and used for antiviral assays, as previously described[10],[38].” left out
as §2

T1 sequence (P51681 whole entry): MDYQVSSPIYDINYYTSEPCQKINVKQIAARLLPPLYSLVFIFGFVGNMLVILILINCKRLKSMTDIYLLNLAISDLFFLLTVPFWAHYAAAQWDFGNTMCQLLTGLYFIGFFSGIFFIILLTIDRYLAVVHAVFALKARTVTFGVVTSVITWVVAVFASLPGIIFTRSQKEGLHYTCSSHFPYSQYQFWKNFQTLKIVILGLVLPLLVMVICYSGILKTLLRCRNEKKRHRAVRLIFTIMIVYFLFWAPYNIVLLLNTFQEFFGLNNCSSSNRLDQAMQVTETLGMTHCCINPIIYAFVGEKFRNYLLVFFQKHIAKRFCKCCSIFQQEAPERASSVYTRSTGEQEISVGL

Consider `C=CCN(C(=O)OCc1ccc([N+](=O)[O-])cc1)C1CC2CCC(C1)N2CCC(C)(CN(C)S(=O)(=O)c1ccccc1)c1ccccc1` (stereo not drawn) [GRL-117C], for which the concentration for half-maximal inhibition (IC50) in the experiment with R5-HIV-1BaL was 8.1 nM; in the experiment with R5-HIV-1Ba-L, 0.6 nM; with pCH0.6.c/2633, 1.9 ± 0.3 nM. Also, the IC90 in the experiment on R5-HIV-1BaL was 48.3 nM; in the experiment with R5-HIV-1Ba-L, 8.9 nM. At CCR5, this compound came in with an EC50 of 4.3 nM.
